For 14 molecules, IC50 results are on record in patent US5753617A, “Peptide inhibitors of cellular adhesion” (Centocor, Inc., priority 1995, dated 1998).

Where a SMILES comes first, the peptide text is derived from it. Bridges are numbered along the chain shown (N, C = ends). [ ]: non-standard residue; d: D form. d2Nal = N[C@H](Cc1ccc2ccccc2c1)C(=O)O; dΔPro = O=C(O)[C@H]1C=CCN1

As usually defined, the IC50 is the concentration at which inhibition is half-maximal.

The assay has as its target T1, P-selectin (Homo sapiens, UniProt P16109).
T1 construct: P-selectin is isolated from human platelet lysates; from tissue; host or cells: human platelets (outdated platelet packs from a blood bank)
T1 sequence (P16109 42-830): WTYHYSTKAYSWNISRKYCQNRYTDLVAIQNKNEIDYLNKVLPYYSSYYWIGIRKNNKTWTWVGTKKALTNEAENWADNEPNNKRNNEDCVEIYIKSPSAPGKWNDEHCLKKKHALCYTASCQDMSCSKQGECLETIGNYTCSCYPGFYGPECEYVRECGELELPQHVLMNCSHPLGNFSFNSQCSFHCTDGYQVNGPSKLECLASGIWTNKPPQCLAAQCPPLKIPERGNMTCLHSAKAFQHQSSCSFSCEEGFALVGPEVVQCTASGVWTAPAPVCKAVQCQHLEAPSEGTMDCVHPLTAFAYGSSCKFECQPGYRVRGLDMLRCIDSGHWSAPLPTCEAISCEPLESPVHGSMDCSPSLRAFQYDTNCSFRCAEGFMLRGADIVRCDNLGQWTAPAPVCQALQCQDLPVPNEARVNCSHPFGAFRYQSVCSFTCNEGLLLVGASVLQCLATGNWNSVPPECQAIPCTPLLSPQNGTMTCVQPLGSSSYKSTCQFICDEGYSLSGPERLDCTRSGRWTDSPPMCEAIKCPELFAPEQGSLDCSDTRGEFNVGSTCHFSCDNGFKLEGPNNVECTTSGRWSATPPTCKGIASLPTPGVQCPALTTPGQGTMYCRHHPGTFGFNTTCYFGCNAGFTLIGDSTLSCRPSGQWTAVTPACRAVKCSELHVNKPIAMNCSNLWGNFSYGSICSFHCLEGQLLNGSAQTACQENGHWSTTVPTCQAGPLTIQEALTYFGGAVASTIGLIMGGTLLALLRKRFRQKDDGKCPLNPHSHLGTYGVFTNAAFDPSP
As to the kind of experiment: Inhibition of human neutrophil adhesion to purified P-selectin immobilized on plastic wells. The class given is cell-based. The following applies: inhibiting the binding of human neutrophils to P-selectin. The source says:
Peptides can be screened for their ability to inhibit adhesion to cells, for example, neutrophil adhesion to purified P-selectin immobilized on plastic wells, using the assay described by Geng, et al., Nature 343, 757-760 (1990). Human neutrophils are isolated from heparinized whole blood by density gradient centrifugation on Mono-Poly resolving media, Flow Laboratories. Neutrophil suspensions are greater than 98% pure and greater than 95% viable by trypan blue exclusion. For adhesion assays, neutrophils are suspended at a concentration of 2×10^6 cells/mL in Hanks' balanced salt solution containing 1.26 mM Ca^2+ and 0.81 mM Mg^2+ (HBSS, Gibco) with […] human serum albumin (HBSS/HSA). Adhesion assays are conducted in triplicate in 96-well microliter plates, Corning, incubated at 4° C. overnight with 50 microliters of various protein solutions. P-selectin is isolated from human platelet lysates by immunoaffinity chromatography on antibody S12-Sepharose™ and ion-exchange chromatography on a Mono-Q™ column (FLPC, Pharmacia Fine Chemicals), as follows. Outdated human platelet packs (100 units) obtained from a blood bank and stored at 4° C. are pooled, adjusted to 5 mM EDTA at pH 7.5, centrifuged at 4,000 rpm for 30 minutes in 1 liter bottles, then washed three times with 1 liter of 0.1M NaCl, 20 mM Tris pH 7.5 (TBS), 5 mM EDTA, 5 mM benzamidine. The pellets are then resuspended in a minimum amount of wash buffer and made 1 mM in DIFP, then frozen in 50 mL screwtop tubes at -80° C. The frozen platelets are thawed and resuspended in 50 mL TBS, 5 mM benzamidine, 5 mM EDTA pH 7.5, […]. The suspension is frozen and thawed two times in a dry ice-acetone bath using a 600 mL lyophilizing flask, then homogenized in a glass/teflon mortar and pestle and made 1 mM in DIFP. The NaCl concentration is adjusted to 0.5M with a stock solution of 4M NaCl. After stirring the suspension at 4° C., it is centrifuged in polycarbonate tubes at 33,000 rpm for 60 minutes at 4° C. The supernatant (0.5M NaCl wash) is removed and saved; this supernatant contains the soluble form of P-selectin. Care is taken not to remove the top part of the pellet with the supernatant. The pellets are then homogenized in extraction buffer (TBS, 5 mM benzamidine, 5 mM EDTA, pH 7.5, 100 μM leupeptin, 2% Triton X-100). After centrifugation at 19,500 rpm for 25 minutes at 4° C., the supernatant is removed. The extraction procedure is repeated with the pellet and the supernatant is combined with the first supernatant. The combined extracts, which contain the membrane form of P-selectin, are adjusted to 0.5M NaCl. The soluble fraction (0.5M NaCl wash) and the membrane extract (also adjusted to 0.5M NaCl) are absorbed with separate pools of the monoclonal antibody S12 (directed to P-selectin) previously couple […]) at 5 mg/mL for 2 hours at 4° C. After letting the resins settle, the supernatants are removed. The S12 Affigel containing bound GMP-140 is then loaded into a column and washed overnight at 4° C. with 400 mL of 0.5M NaCl, 20 mM Tris pH 7.5, 0.01% Lubrol PX. Bound P-selectin is eluted from the S12 Affigel with 100 mL of 80% ethylene glycol, 1 mM MES pH 6.0, 0.01% Lubrol PX. Peak fractions with absorbance at 280 nm are pooled. Eluates are dialyzed against TBS with 0.05% Lubrol, then applied to a Mono Q column (FPLC from Pharmacia). The concentrated protein is step eluted with 2M NaCl, 20 mM Tris pH 7.5 (plus 0.05% Lubrol PX for the membrane fraction). Peak fractions are dialyzed into TBS pH 7.5 (plus 0.05% Lubrol PX for the membrane fraction). P-selectin is plated at 5 micrograms/mL and the control proteins: human serum albumin (Alb), platelet glycoprotein IIb/IIIa (IIb), von Willebrand factor (vWF), fibrinogen (FIB), thrombomodulin (TM), gelatin (GEL) or human serum (HS), are added at 50 micrograms/mL. […]
On to `CC(C)[C@@H](NC(=O)[C@@H](Cc1c[nH]c2ccccc12)NC(=O)[C@H](NC(=O)[C@@H](Cc1c[nH]c2ccccc12)NC(=O)[C@H]1CSSC[C@@H](N)C(=O)NCC(=O)NCC(=O)N1)[C@H](C)O)C(N)=O` [(28)] (H-[dC]GG[dC][dW][dT][dW][dV]-NH2; disulfide 1-4), for which the IC50 was 311 µM.
Consider `CC[C@H](C)[C@@H]1NC(=O)CNC(=O)[C@@H](NC(=O)[C@@H](NC(=O)[C@H](CCCCN)NC(=O)[C@@H](N)CCCNC(=N)N)[C@@H](C)CC)CCC(=O)NCCCC[C@@H](C(=O)N[C@@H](Cc2c[nH]c3ccccc23)C(=O)N[C@H](C(N)=O)C(C)C)NC(=O)[C@H](Cc2c[nH]c3ccccc23)NC1=O` [(30)] (H-RKIEGIWKWV-NH2; lactam 4-8), for which the IC50 was 93 µM.
The value for `CC[C@H](C)[C@@H]1NC(=O)CNC(=O)[C@@H](NC(=O)[C@@H](NC(=O)[C@H](CCCCN)NC(=O)[C@@H](N)CCCNC(=N)N)[C@@H](C)CC)CCCCNC(=O)CC[C@@H](C(=O)N[C@@H](Cc2c[nH]c3ccccc23)C(=O)N[C@H](C(N)=O)C(C)C)NC(=O)[C@H](Cc2c[nH]c3ccccc23)NC1=O` [(31)] (H-RKIKGIWEWV-NH2; lactam 4-8) was 18 µM.
For `CC[C@@H](C)[C@@H](NC(=O)[C@@H](CCCCN)NC(=O)[C@H](N)CCCNC(=N)N)C(=O)NCC(=O)N[C@@H]1CSSC[C@H](C(=O)N[C@@H](C(=O)N[C@@H](C(N)=O)C(C)C)[C@H](C)O)NC(=O)[C@@H](Cc2c[nH]c3ccccc23)NC(=O)[C@@H]([C@H](C)CC)NC1=O` [(32)] (H-[dR][dK][dI]G[dC][dI][dW][dC][dT][dV]-NH2; disulfide 5-8), the 50% inhibitory concentration (IC50) turned out to be 23 µM.
Regarding `CC(C)[C@@H](NC(=O)[C@@H](Cc1c[nH]c2ccccc12)NC(=O)[C@H](NC(=O)[C@@H](Cc1c[nH]c2ccccc12)NC(=O)[C@H]1CSSC[C@@H](NC(=O)[C@H](CCCCN)NC(=O)[C@H](N)CCCNC(=N)N)C(=O)NCC(=O)N[C@@H](Cc2ccccc2)C(=O)N1)[C@H](C)O)C(N)=O` [(34)] (H-[dR]K[dC]GF[dC][dW][dT][dW][dV]-NH2; disulfide 3-6), the IC50 is 88.5 µM.
As to `CC(C)[C@@H](NC(=O)[C@@H](Cc1c[nH]c2ccccc12)NC(=O)[C@H](NC(=O)[C@@H](Cc1c[nH]c2ccccc12)NC(=O)[C@H]1CSSC[C@H](NC(=O)[C@@H](CCCCN)NC(=O)[C@H](N)CCCNC(=N)N)C(=O)NCC(=O)N[C@@H](Cc2ccccc2)C(=O)N1)[C@H](C)O)C(N)=O` [(35)] (H-[dR][dK]CGF[dC][dW][dT][dW][dV]-NH2; disulfide 3-6), the IC50 worked out at 11.6 µM.
With `CC(C)[C@@H](NC(=O)[C@@H](Cc1c[nH]c2ccccc12)NC(=O)[C@H](NC(=O)[C@@H](Cc1c[nH]c2ccccc12)NC(=O)[C@H]1CSSC[C@@H](NC(=O)[C@@H](CCCCN)NC(=O)[C@H](N)CCCNC(=N)N)C(=O)NCC(=O)N2CC=C[C@@H]2C(=O)N1)[C@H](C)O)C(N)=O` [(36)] (H-[dR][dK][dC]G[dΔPro][dC][dW][dT][dW][dV]-NH2; disulfide 3-6) the figure was 267 µM.
The value for `CC(C)[C@@H](NC(=O)[C@@H](Cc1c[nH]c2ccccc12)NC(=O)[C@H](NC(=O)[C@@H](Cc1c[nH]c2ccccc12)NC(=O)[C@H]1CSSC[C@@H](NC(=O)[C@@H](CCCCN)NC(=O)[C@H](N)CCCNC(=N)N)C(=O)NCC(=O)N[C@@H](CCCNC(=N)N)C(=O)N1)[C@H](C)O)C(N)=O` [(40)] (H-[dR][dK][dC]GR[dC][dW][dT][dW][dV]-NH2; disulfide 3-6) was 324 µM; that for `CC(C)[C@@H](NC(=O)[C@@H](Cc1c[nH]c2ccccc12)NC(=O)[C@H](NC(=O)[C@@H](CCC(N)=O)NC(=O)[C@H]1CSSC[C@@H](NC(=O)[C@@H](CCCCN)NC(=O)[C@H](N)CCCNC(=N)N)C(=O)NCC(=O)N[C@@H](Cc2ccccc2)C(=O)N1)[C@H](C)O)C(N)=O` [(46)] (H-[dR][dK][dC]GF[dC][dQ][dT][dW][dV]-NH2; disulfide 3-6) was 48.4 µM.
With `CC(C)[C@@H](NC(=O)[C@@H](Cc1c[nH]c2ccccc12)NC(=O)[C@H](NC(=O)[C@@H](Cc1c[nH]cn1)NC(=O)[C@H]1CSSC[C@@H](NC(=O)[C@@H](CCCCN)NC(=O)[C@H](N)CCCNC(=N)N)C(=O)NCC(=O)N[C@@H](Cc2ccccc2)C(=O)N1)[C@H](C)O)C(N)=O` [(48)] (H-[dR][dK][dC]GF[dC][dH][dT][dW][dV]-NH2; disulfide 3-6) the figure was 406 µM; with `CC[C@H](C)[C@@H]1NC(=O)[C@H]([C@@H](C)CC)NC(=O)[C@H](NC(=O)[C@@H](CCCCN)NC(=O)[C@H](N)CCCNC(=N)N)CSSC[C@H](C(=O)N[C@H](Cc2c[nH]c3ccccc23)C(=O)N[C@@H](C(=O)N[C@H](Cc2c[nH]c3ccccc23)C(=O)N[C@@H](C(N)=O)C(C)C)[C@H](C)O)NC1=O` [(49)] (H-[dR][dK][dC]II[dC][dW][dT][dW][dV]-NH2; disulfide 3-6), 7.1 µM.
`CC(=O)NCCCC[C@@H](NC(=O)[C@H]1CSC[C@@H](NC(=O)[C@@H](CCCCN)NC(=O)[C@H](N)CCCNC(=N)N)C(=O)NCC(=O)N[C@@H](Cc2ccccc2)C(=O)N1)C(=O)N[C@@H](C(=O)N[C@H](Cc1c[nH]c2ccccc12)C(=O)N[C@@H](C(N)=O)C(C)C)[C@H](C)O` [(50)] gave an IC50 of 19.5 µM.
With `CC(C)[C@@H](NC(=O)[C@@H](Cc1c[nH]c2ccccc12)NC(=O)[C@H](NC(=O)[C@@H](Cc1ccc2ccccc2c1)NC(=O)[C@H]1CSSC[C@@H](NC(=O)[C@@H](CCCCN)NC(=O)[C@H](N)CCCNC(=N)N)C(=O)NCC(=O)N[C@@H](Cc2ccccc2)C(=O)N1)[C@H](C)O)C(N)=O` [(51)] (H-[dR][dK][dC]GF[dC][d2Nal][dT][dW][dV]-NH2; disulfide 3-6) the figure was 7.7 µM; with `CC(C)[C@@H](NC(=O)[C@@H](Cc1c[nH]c2ccccc12)NC(=O)[C@H](NC(=O)[C@@H](Cc1c[nH]c2ccccc12)NC(=O)[C@H]1CSSC[C@@H](NC(=O)[C@@H](CCCCN)NC(=O)[C@H](N)CCCNC(=N)N)C(=O)N[C@H](CCCCN)C(=O)N[C@@H](Cc2ccccc2)C(=O)N1)[C@H](C)O)C(N)=O` [(54)] (H-[dR][dK][dC][dK]F[dC][dW][dT][dW][dV]-NH2; disulfide 3-6), 217 µM.
